Source: patent EP4775568A1, “NOVEL COMPOUND AND USE THEREOF FOR TREATING PSORIASIS” (Gwangju Institute of Science and Technology, priority 2023, dated 2025)

Target: T1, CMKLR1 (Homo sapiens, UniProt Q99788)
T1 construct: expressed in transfected cells; host or cells: CHO-K1 cells expressing Gα-16 (CHO-Ga16-CMKLR1)
T1 sequence (Q99788 1-373): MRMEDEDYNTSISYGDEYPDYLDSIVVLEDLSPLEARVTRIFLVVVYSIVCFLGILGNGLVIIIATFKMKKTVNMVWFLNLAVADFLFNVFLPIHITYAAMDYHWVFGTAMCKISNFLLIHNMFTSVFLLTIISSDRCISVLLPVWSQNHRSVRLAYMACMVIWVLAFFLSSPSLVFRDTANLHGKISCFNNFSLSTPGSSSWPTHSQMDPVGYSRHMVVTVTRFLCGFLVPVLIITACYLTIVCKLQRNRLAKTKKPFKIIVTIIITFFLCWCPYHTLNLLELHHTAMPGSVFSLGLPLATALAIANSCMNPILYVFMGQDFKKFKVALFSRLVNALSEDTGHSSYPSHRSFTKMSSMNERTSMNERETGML
Test: Calcium mobilization assay (CHO-Ga16-CMKLR1 cells, chemerin-9 induced signal)
Type: cell-based
Conditions: Table 4, IC50 class, calcium signal induced by 2.5 nM chemerin-9
Method: To establish a CMKLR1 calcium mobilization cell evaluation system, CHO-K1 cells expressing Gα-16 were transfected with pcDNA3.1-derived human CMKLR1-expressing plasmids using Lipofectamine 2000 (Invitrogen, Waltham, Massachusetts, USA). […] The established cell line (CHO-Ga16-CMKLR1) was cultured in F-12 medium (Invitrogen) supplemented with 10% (v/v) fetal bovine serum (FBS; Invitrogen), 0.5 mg/mL geneticin, 0.2 mg/mL hygromycin B (Clontech), and 1% (v/v) antibiotic-antimycotic solution (Invitrogen) under 5% CO2 at 37°C.
100 µL/well was added to a 96-well plate (Corning) and incubated for 24 h. The buffer solution was prepared by adding 1 M HEPES solution to Hanks' Balanced Salt Solution (HBSS) (Invitrogen) and adjusting the pH to 7.4 by dropwise addition of 1 M NaOH.
The fluorescent dye solution was prepared using the buffer provided with the Calcium 5 Assay Kit (Molecular Devices). 40 µL/well of dye solution was added to each well and incubated at 37°C in a 5% CO2 atmosphere for 30 min. […] The final DMSO concentration was adjusted to 2%. 40 µL of each compound solution was added to the well and incubated for 30 min. […] Prism 5 software (GraphPad) was then used to obtain IC50 values for various compounds. IC50 values were derived based on concentration-response curves, and all experiments were repeated at least three times.

IC50 [nM] | Structure (SMILES)
100 to 1000 | C[C@@H](CC(=O)O)c1ccc(OCc2ccc3c(-c4ccc(C(=O)O)cc4F)nn(C4CCCC4)c3c2)cc1 [Compound 52, (S)-4-(6-((4-(1-carboxypropan-2-yl)phenoxy)methyl)-1-cyclopentyl-1H-indazol-3-yl)-3-fluorobenzoic acid]
100 to 1000 | Cc1cc(-c2nn(C3CCCC3)c3cc(COc4ccc([C@@H](C)CC(=O)O)cc4)ccc23)cc(C)c1O [Compound 53, (S)-3-(4-((1-cyclopentyl-3-(4-hydroxy-3,5-dimethylphenyl)-1H-indazol-6-yl)methoxy)phenyl)butanoic acid]
> 1000 | C[C@@H](CC(=O)O)c1ccc(OCc2ccc3c(-c4cccc(CO)c4)nn(C4CCCC4)c3c2)cc1 [Compound 54, (S)-3-(4-((1-cyclopentyl-3-(3-(hydroxymethyl)phenyl)-1H-indazol-6-yl)methoxy)phenyl)butanoic acid]
> 1000 | C[C@@H](CC(=O)O)c1ccc(OCc2ccc3c(-c4ccc(O)c(F)c4F)nn(C4CCCC4)c3c2)cc1 [Compound 55, (S)-3-(4-((1-cyclopentyl-3-(2,3-difluoro-4-hydroxyphenyl)-1H-indazol-6-yl)methoxy)phenyl)butanoic acid]
> 1000 | COc1ccc(-c2nn(C3CCCC3)c3cc(COc4ccc([C@H](C)CC(=O)O)cc4)ccc23)cc1 [Compound 57, (R)-3-(4-((1-cyclopentyl-3-(4-methoxyphenyl)-1H-indazol-6-yl)methoxy)phenyl)butanoic acid]
> 1000 | CC(CC(=O)O)c1ccc(OCc2ccc3c(-c4ccc(N)cc4)nn(C4CCCC4)c3c2)cc1 (stereo not shown) [Compound 59, 3-(4-((3-(4-aminophenyl)-1-cyclopentyl-1H-indazol-6-yl)methoxy)phenyl)butanoic acid]
> 1000 | CC(=O)Nc1ccc(-c2nn(C3CCCC3)c3cc(COc4ccc(C(C)CC(=O)O)cc4)ccc23)cc1 (stereo not shown) [Compound 60, 3-(4-((3-(4-acetamidophenyl)-1-cyclopentyl-1H-indazol-6-yl)methoxy)phenyl)butanoic acid]
> 1000 | CC(=O)Nc1ccc(-c2nn(C3CCCC3)c3cc(COc4ccc(C(C)CC(=O)O)cc4)ccc23)cc1 (stereo not shown) [Compound 61, 3-(4-((3-(4-acetamidophenyl)-1-cyclopentyl-1H-indazol-6-yl)methoxy)phenyl)butanoic acid]
< 100 | C[C@@H](CC(=O)O)c1ccc(OCc2cc(F)c3c(-c4cc(Cl)c(O)c(Cl)c4)nn(C4CCCC4)c3c2)cc1 [Compound 69, (S)-3-(4-((1-cyclopentyl-3-(3,5-dichloro-4-hydroxyphenyl)-4-fluoro-1H-indazol-6-yl)methoxy)phenyl)butanoic acid]
100 to 1000 | CC(CC(=O)O)c1ccc(OCc2cnc3c(-c4ccc(O)cc4)nn(C4CCCC4)c3c2)cc1 (stereo not shown) [Compound 72, 3-(4-((1-cyclopentyl-3-(4-hydroxyphenyl)-1H-pyrazolo[4,3-b]pyridin-6-yl)methoxy)phenyl)butanoic acid]
100 to 1000 | CC(CC(=O)O)c1ccc(OCc2cnc3c(-c4cc(Cl)c(O)c(Cl)c4)nn(C4CCCC4)c3c2)cc1 (stereo not shown) [Compound 73, 3-(4-((1-cyclopentyl-3-(3,5-dichloro-4-hydroxyphenyl)-1H-pyrazolo[4,3-b]pyridin-6-yl)methoxy)phenyl)butanoic acid]
100 to 1000 | CC(CC(=O)O)c1ccc(OCc2cnc3c(-c4cc(F)c(O)c(F)c4)nn(C4CCCC4)c3c2)cc1 (stereo not shown) [Compound 74, 3-(4-((1-cyclopentyl-3-(3,5-difluoro-4-hydroxyphenyl)-1H-pyrazolo[4,3-b]pyridin-6-yl)methoxy)phenyl)butanoic acid]
100 to 1000 | CC(CC(=O)O)c1ccc(OCc2cnc3c(-c4ccc(O)c(Cl)c4)nn(C4CCCC4)c3c2)cc1 (stereo not shown) [Compound 75, 3-(4-((3-(3-chloro-4-hydroxyphenyl)-1-cyclopentyl-1H-pyrazolo[4,3-b]pyridin-6-yl)methoxy)phenyl)butanoic acid]

Same assay, conditions: read-out: CMKLR1 activity in CHO cells (% inhibition at 10 µM), 10 µM compound, relative to calcium signal induced by 2.5 nM chemerin-9

inhibition at 10 µM [%] | Structure (SMILES)
24 | CC(CC(=O)O)c1ccc(OCc2ccc3c(-c4ccccc4)nn(C)c3c2)cc1 (stereo not shown) [Compound 77, 3-(4-((1-methyl-3-phenyl-1H-indazol-6-yl)methoxy)phenyl)butanoic acid]
60 | CCCn1nc(-c2ccccc2)c2ccc(COc3ccc(C(C)CC(=O)O)cc3)cc21 (stereo not shown) [Compound 79, 3-(4-((3-phenyl-1-propyl-1H-indazol-6-yl)methoxy)phenyl)butanoic acid]
52 | CC(C)Cn1nc(-c2ccccc2)c2ccc(COc3ccc(C(C)CC(=O)O)cc3)cc21 (stereo not shown) [Compound 80, 3-(4-((1-isobutyl-3-phenyl-1H-indazol-6-yl)methoxy)phenyl)butanoic acid]
35 | CC(CC(=O)O)c1ccc(OCc2ccc3c(-c4ccccc4)nn(CC4CC4)c3c2)cc1 (stereo not shown) [Compound 81, 3-(4-((1-(cyclopropylmethyl)-3-phenyl-1H-indazol-6-yl)methoxy)phenyl)butanoic acid]
28 | CC(CC(=O)O)c1ccc(OCc2ccc3c(-c4ccccc4)nn(CC4CCCCC4)c3c2)cc1 (stereo not shown) [Compound 83, 3-(4-((1-(cyclohexylmethyl)-3-phenyl-1H-indazol-6-yl)methoxy)phenyl)butanoic acid]
23 | CC(CC(=O)O)c1ccc(OCc2ccc3c(-c4ccccc4)nn(Cc4ccccc4)c3c2)cc1 (stereo not shown) [Compound 85]
